Measured values: patent US20160354320A1, “DRUG LOADED POLYMERIC NANOPARTICLES AND METHODS OF MAKING AND USING SAME” (BIND Therapeutics, Inc., priority 2011, published 2016)

Assay: Water solubility of cabazitaxel
Format: physicochemical
Description: Drug solubilizer (Tween 80) may be added after the fine emulsion has been quenched. Tween 80 is able to effectively solubilize CTXL crystals and allow for the isolation of nanoparticles from unencapsulated CTXL by preventing the formation of CTXL crystals, and/or by effectively solubilizing any CTXL crystals that form when the fine emulsion is quenched. A standard set of nanoemulsion conditions are as follows: […]

For cabazitaxel [CTXL], the water solubility was “very low water solubility”.
